Measurements as given in BindingDB's records for doi:10.1021/acs.jmedchem.8b00655 (University of Iowa, 2018).

Assay: Binding affinity to BTN3A1 in human PBMC assessed as stimulation of Vgamma9 Vdelta2 T cells incubated for 3 days and measured after 11 days post compound removal by flow cytometry
`COP(=O)(CC/C=C(\C)CO)OC` showed an EC50 of over 10000 nM. For `C/C(=C\CCP(=O)(NCC(=O)OC(C)C)Oc1cccc2ccccc12)CO` (stereo not given), the EC50 was 0.34 nM. `C/C(=C\CCP(=O)(NCC(=O)OC(C)C)Oc1ccc2ccccc2c1)CO` (stereo not given) showed an EC50 of 0.82 nM. Work on `CCOC(=O)CNP(=O)(CC/C=C(\C)CO)Oc1ccccc1` (stereo not given) yielded an EC50 of 0.36 nM. In the case of `COC(=O)CNP(=O)(CC/C=C(\C)CO)Oc1ccc2ccccc2c1` (stereo not given), the EC50 is reported as 0.58 nM. Work on `CCOC(=O)CNP(=O)(CC/C=C(\C)CO)Oc1cccc2ccccc12` (stereo not given) yielded an EC50 of 0.36 nM. With `CCOC(=O)CNP(=O)(CC/C=C(\C)CO)Oc1ccc2ccccc2c1` (stereo not given) the EC50 was 0.53 nM. For `COC(=O)CNP(=O)(CC/C=C(\C)CO)Oc1ccccc1` (stereo not given), the EC50 was 1.5 nM. `C/C(=C\CCP(=O)(NCC(=O)OC(C)C)Oc1ccccc1)CO` (stereo not given) gave an EC50 of 1.1 nM. `COC(=O)CNP(=O)(CC/C=C(\C)CO)Oc1cccc2ccccc12` (stereo not given) gave an EC50 of 0.44 nM.
